Experimental data published in US9931327B2, “Derivatives of 1-phenyl-2-pyridinyl alkyl alcohols as phosphodiesterase inhibitors” (Chiesi Farmaceutici S.p.A., priority 2011, dated 2018).

system: LPS-induced TNF-α release in peripheral blood mononuclear cells (PBMCs); experiment: In vitro determination of PDE4 inhibitory activity in the PBMCs assay (LPS-induced TNF-α release); type: cell-based, human; conditions: PBMC; human PBMCs, LPS 3 ng/ml, 18 hours, TNF-α by ELISA; read-out: PDE4 inhibition (IC50, 50% inhibition of LPS-induced TNF-α release)
Method: The assay, which is based on the known inhibitory activity exerted by PDE4 inhibitors on the lipopolyshaccarides (LPS)-induced tumour necrosis factor-alpha (TNF-α release in peripheral blood mononuclear cells (PBMCs), was performed according to a method previously described (Hatzelmann A et al., J. Pharmacol. Exp. Ther., 2001; 297:267-279; and Draheim R et al., J. Pharmacol. Exp. Ther., 2004; 308:555-563, which are incorporated herein by reference in their entireties). Cryopreserved human PBMCs, (100 l/well) were incubated in 96-well plates (10^5 cells/well), for 30 minutes, in the presence or absence (50 microl) of the test compounds whose concentrations ranged from 10^−12 M to 10^−6 M or from […] to 10^−7 M. Subsequently, LPS (3 ng/ml) was added.
After 18 hours of incubation at 37° C. in a humidified incubator under an atmosphere of 95% air and 5% CO2, culture medium was collected and TNF-α measured by ELISA. The results of the tested compounds, representatives of the invention, expressed as mean±95% confidence limits of the molar concentration of the test compound producing 50% inhibition of LPS-induced TNF-α release (IC50) are shown in the following Table: […]

| Compound | IC50 [pM] |
| --- | --- |
| CN(C)C(=O)c1cccc(S(=O)(=O)N2CCSC2C(=O)O[C@@H](Cc2c(Cl)c[n+]([O-])cc2Cl)c2ccc(OC(F)F)c(OCC3CC3)c2)c1 (stereo partly drawn) [Compound 56, 3,5-dichloro-4-((2S)-2-(3-(cyclopropylmethoxy)-4-(difluoromethoxy)phenyl)-2-(3-(3-(dimethylcarbamoyl)phenylsulfonyl)thiazolidine-2-carbonyloxy)ethyl)pyridine 1-oxide] | < 100 |
| O=C(O[C@@H](Cc1c(Cl)c[n+]([O-])cc1Cl)c1ccc(OC(F)F)c(OCC2CC2)c1)C1SCCN1S(=O)(=O)c1ccccc1 (stereo partly drawn) [Compound 57, 3,5-dichloro-4-((2S)-2-(3-(cyclopropylmethoxy)-4-(difluoromethoxy)phenyl)-2-(3-(phenylsulfonyl)thiazolidine-2-carbonyloxy)ethyl)pyridine 1-oxide] | 100 to 1000 |
| O=C1NC(=O)c2cc(S(=O)(=O)N3CCSC3C(=O)O[C@@H](Cc3c(Cl)c[n+]([O-])cc3Cl)c3ccc(OC(F)F)c(OCC4CC4)c3)ccc21 (stereo partly drawn) [Compound 58, 3,5-dichloro-4-((2S)-2-(3-(cyclopropylmethoxy)-4-(difluoromethoxy)phenyl)-2-(3-(1,3-dioxoisoindolin-5-ylsulfonyl)thiazolidine-2-carbonyloxy)ethyl)pyridine 1-oxide] | 100 to 1000 |
| NS(=O)(=O)c1cccc(S(=O)(=O)N2CCSC2C(=O)O[C@@H](Cc2c(Cl)c[n+]([O-])cc2Cl)c2ccc(OC(F)F)c(OCC3CC3)c2)c1 (stereo partly drawn) [Compound 59, 3,5-dichloro-4-((2S)-2-(3-(cyclopropylmethoxy)-4-(difluoromethoxy)phenyl)-2-(3-(3-sulfamoylphenylsulfonyl)thiazolidine-2-carbonyloxy)ethyl)pyridine 1-oxide] | < 100 |
| O=C(O[C@@H](Cc1c(Cl)c[n+]([O-])cc1Cl)c1ccc(OC(F)F)c(OCC2CC2)c1)C1SCCN1S(=O)(=O)c1cccc(F)c1 (stereo partly drawn) [Compound 60, 3,5-dichloro-4-((2S)-2-(3-(cyclopropylmethoxy)-4-(difluoromethoxy)phenyl)-2-(3-(3-fluorophenylsulfonyl)thiazolidine-2-carbonyloxy)ethyl)pyridine 1-oxide] | 100 to 1000 |
| Cc1ccc(S(=O)(=O)N2CCSC2C(=O)O[C@@H](Cc2c(Cl)c[n+]([O-])cc2Cl)c2ccc(OC(F)F)c(OCC3CC3)c2)c(C)c1 (stereo partly drawn) [Compound 61, 3,5-dichloro-4-((2S)-2-(3-(cyclopropylmethoxy)-4-(difluoromethoxy)phenyl)-2-(3-(2,4-dimethylphenylsulfonyl)thiazolidine-2-carbonyloxy)ethyl)pyridine 1-oxide] | 100 to 1000 |
| O=C(O[C@@H](Cc1c(Cl)c[n+]([O-])cc1Cl)c1ccc(OC(F)F)c(OCC2CC2)c1)C1SCCN1S(=O)(=O)c1cccs1 (stereo partly drawn) [Compound 62, 3,5-dichloro-4-((2S)-2-(3-(cyclopropylmethoxy)-4-(difluoromethoxy)phenyl)-2-(3-(thiophen-2-ylsulfonyl)thiazolidine-2-carbonyloxy)ethyl)pyridine 1-oxide] | 100 to 1000 |
| O=C(O[C@@H](Cc1c(Cl)c[n+]([O-])cc1Cl)c1ccc(OC(F)F)c(OCC2CC2)c1)C1SCCN1S(=O)(=O)c1cccc(Cl)c1 (stereo partly drawn) [Compound 63, 3,5-dichloro-4-((2S)-2-(3-(3-chlorophenylsulfonyl)thiazolidine-2-carbonyloxy)-2-(3-(cyclopropylmethoxy)-4-(difluoromethoxy)phenyl)ethyl)pyridine 1-oxide] | 100 to 1000 |
| Cn1ccnc1S(=O)(=O)N1CCSC1C(=O)O[C@@H](Cc1c(Cl)c[n+]([O-])cc1Cl)c1ccc(OC(F)F)c(OCC2CC2)c1 (stereo partly drawn) [Compound 64, 3,5-dichloro-4-((2S)-2-(3-(cyclopropylmethoxy)-4-(difluoromethoxy)phenyl)-2-(3-(1-methyl-1H-imidazol-2-ylsulfonyl)thiazolidine-2-carbonyloxy)ethyl)pyridine 1-oxide] | < 100 |
| O=C(O[C@@H](Cc1c(Cl)c[n+]([O-])cc1Cl)c1ccc(OC(F)F)c(OCC2CC2)c1)C1SCCN1S(=O)(=O)CC1CC1 (stereo partly drawn) [Compound 65, 3,5-dichloro-4-((2S)-2-(3-(cyclopropylmethoxy)-4-(difluoromethoxy)phenyl)-2-(3-(cyclopropylmethylsulfonyl)thiazolidine-2-carbonyloxy)ethyl)pyridine 1-oxide] | 100 to 1000 |
| O=C(O[C@@H](Cc1c(Cl)c[n+]([O-])cc1Cl)c1ccc(OC(F)F)c(OCC2CC2)c1)C1SCCN1S(=O)(=O)c1cccnc1 (stereo partly drawn) [Compound 66, 3,5-dichloro-4-((2S)-2-(3-(cyclopropylmethoxy)-4-(difluoromethoxy)phenyl)-2-(3-(pyridin-3-ylsulfonyl)thiazolidine-2-carbonyloxy)ethyl)pyridine 1-oxide] | < 100 |
| O=C(O[C@@H](Cc1c(Cl)c[n+]([O-])cc1Cl)c1ccc(OC(F)F)c(OCC2CC2)c1)C1SCCN1S(=O)(=O)c1ccc(F)cc1F (stereo partly drawn) [Compound 67, 3,5-dichloro-4-((2S)-2-(3-(cyclopropylmethoxy)-4-(difluoromethoxy)phenyl)-2-(3-(2,4-difluorophenylsulfonyl)thiazolidine-2-carbonyloxy)ethyl)pyridine 1-oxide] | 100 to 1000 |
| O=C(O[C@@H](Cc1c(Cl)c[n+]([O-])cc1Cl)c1ccc(OC(F)F)c(OCC2CC2)c1)C1SCCN1S(=O)(=O)c1ccc(F)cc1Cl (stereo partly drawn) [Compound 68, 3,5-dichloro-4-((2S)-2-(3-(2-chloro-4-fluorophenylsulfonyl)thiazolidine-2-carbonyloxy)-2-(3-(cyclopropylmethoxy)-4-(difluoromethoxy)phenyl)ethyl)pyridine 1-oxide] | 100 to 1000 |
| Cc1cc(F)ccc1S(=O)(=O)N1CCSC1C(=O)O[C@@H](Cc1c(Cl)c[n+]([O-])cc1Cl)c1ccc(OC(F)F)c(OCC2CC2)c1 (stereo partly drawn) [Compound 69, 3,5-dichloro-4-((2S)-2-(3-(cyclopropylmethoxy)-4-(difluoromethoxy)phenyl)-2-(3-(4-fluoro-2-methylphenylsulfonyl)thiazolidine-2-carbonyloxy)ethyl)pyridine 1-oxide] | 100 to 1000 |
| O=C(O[C@@H](Cc1c(Cl)c[n+]([O-])cc1Cl)c1ccc(OC(F)F)c(OCC2CC2)c1)C1SCCN1S(=O)(=O)c1ccccc1Cl (stereo partly drawn) [Compound 70, 3,5-dichloro-4-((2S)-2-(3-(2-chlorophenylsulfonyl)thiazolidine-2-carbonyloxy)-2-(3-(cyclopropylmethoxy)-4-(difluoromethoxy)phenyl)ethyl)pyridine 1-oxide] | 100 to 1000 |
| O=C(O[C@@H](Cc1c(Cl)c[n+]([O-])cc1Cl)c1ccc(OC(F)F)c(OCC2CC2)c1)C1SCCN1S(=O)(=O)C1CCCCC1 (stereo partly drawn) [Compound 71, 3,5-dichloro-4-((2S)-2-(3-(cyclohexylsulfonyl)thiazolidine-2-carbonyloxy)-2-(3-(cyclopropylmethoxy)-4-(difluoromethoxy)phenyl)ethyl)pyridine 1-oxide] | 1000 to 10000 |
| COc1ccc(S(=O)(=O)N2CCSC2C(=O)O[C@@H](Cc2c(Cl)c[n+]([O-])cc2Cl)c2ccc(OC(F)F)c(OCC3CC3)c2)cc1OC (stereo partly drawn) [Compound 73, 3,5-dichloro-4-((2S)-2-(3-(cyclopropylmethoxy)-4-(difluoromethoxy)phenyl)-2-(3-(3,4-dimethoxyphenylsulfonyl)thiazolidine-2-carbonyloxy)ethyl)pyridine 1-oxide] | < 100 |
| O=C(O[C@@H](Cc1c(Cl)c[n+]([O-])cc1Cl)c1ccc(OC(F)F)c(OCC2CC2)c1)C1SCCN1S(=O)(=O)c1ccc(N2CCOCC2)nc1 (stereo partly drawn) [Compound 74, 3,5-dichloro-4-((2S)-2-(3-(cyclopropylmethoxy)-4-(difluoromethoxy)phenyl)-2-(3-(6-morpholinopyridin-3-ylsulfonyl)thiazolidine-2-carbonyloxy)ethyl)pyridine 1-oxide] | < 100 |
| Cc1noc(C)c1S(=O)(=O)N1CCSC1C(=O)O[C@@H](Cc1c(Cl)c[n+]([O-])cc1Cl)c1ccc(OC(F)F)c(OCC2CC2)c1 (stereo partly drawn) [Compound 76, 3,5-dichloro-4-((2S)-2-(3-(cyclopropylmethoxy)-4-(difluoromethoxy)phenyl)-2-(3-(3,5-dimethylisoxazol-4-ylsulfonyl)thiazolidine-2-carbonyloxy)ethyl)pyridine 1-oxide] | 100 to 1000 |
| CN(C)C(=O)c1cccc(S(=O)(=O)N2CCOC(C(=O)O[C@@H](Cc3c(Cl)c[n+]([O-])cc3Cl)c3ccc(OC(F)F)c(OCC4CC4)c3)C2)c1 (stereo partly drawn) [Compound 78, 3,5-dichloro-4-((2S)-2-(3-(cyclopropylmethoxy)-4-(difluoromethoxy)phenyl)-2-(4-(3-(dimethylcarbamoyl)phenylsulfonyl)morpholine-2-carbonyloxy)ethyl)pyridine 1-oxide] | 100 to 1000 |
| O=C(O[C@@H](Cc1c(Cl)c[n+]([O-])cc1Cl)c1ccc(OC(F)F)c(OCC2CC2)c1)C1CN(S(=O)(=O)c2ccccc2)CCO1 (stereo partly drawn) [Compound 79, 3,5-dichloro-4-((2S)-2-(3-(cyclopropylmethoxy)-4-(difluoromethoxy)phenyl)-2-(4-(phenylsulfonyl)morpholine-2-carbonyloxy)ethyl)pyridine 1-oxide] | 100 to 1000 |
| CN(C)C(=O)c1cccc(S(=O)(=O)N2CCSCC2C(=O)O[C@@H](Cc2c(Cl)c[n+]([O-])cc2Cl)c2ccc(OC(F)F)c(OCC3CC3)c2)c1 (stereo partly drawn) [Compound 80, 3,5-dichloro-4-((2S)-2-(3-(cyclopropylmethoxy)-4-(difluoromethoxy)phenyl)-2-(4-(3-(dimethylcarbamoyl)phenylsulfonyl)thiomorpholine-3-carbonyloxy)ethyl)pyridine 1-oxide] | 100 to 1000 |
